Results published in patent US9499550B2 (BRISTOL-MYERS SQUIBB COMPANY, priority 2012, dated 2016).
pEC50: −log10 of the molar value. Read-outs that look alike come from different tables or passages of the source.

Assays:
[1] = system: HCV genotype 1a (H77 strain) replicon in HUH-7 cells; assay: HCV replicon luciferase reporter assay, genotype 1a; format: cell-based; details: Hepatitis C virus, Huh-7, 72 h, 3 days incubation, read-out: LE_1a (EC50, range)
Summary of the method: (§1)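 Replicon inhibition for both genotypes was measured as Renilla luciferase signal (EnduRen, 7.5 μM final, 2 h) after 3-day, 37° C exposure of replicon-bearing HUH-7 cells in 4% FCS DMEM, 0.5% DMSO. The 1b construct carries S1179I; the 1a H77 construct carries P1496L and S2204I. Twenty-point, 3-fold dilutions were fitted four-parametrically for EC50, and CC50 was taken from multiplexed Cell Titer-Blue.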

[2] = system: HCV genotype 1b (Con1) replicon in HUH-7 cells; assay: HCV replicon luciferase reporter assay, genotype 1b; format: cell-based; details: Hepatitis C virus, Huh-7, 72 h, 3 days incubation, read-out: LE_1b (EC50, range)
Summary of the method: as §1

[3] = HCV genotype 1a replicon luciferase
[4] = HCV genotype 1b replicon luciferase
[5] = GETYPE1A, HCV genotype 1a replicon luciferase
[6] = GETYPE1B, HCV genotype 1b replicon luciferase
[7] = HCV genotype 1a replicon luciferase assay, range class
[8] = HCV genotype 1b replicon luciferase assay, range class

| Structure (SMILES) | pEC50 [1, 3] | pEC50 [2, 4] | further results |
| --- | --- | --- | --- |
| [2H]C([2H])([2H])C(OC(=O)N[C@@H]1C(=O)N2C[C@H](Oc3nccc4c5c(ccc34)N(C)CCO5)C[C@H]2C(=O)N[C@]2(C(=O)NS(=O)(=O)C3CC3)C[C@H]2/C=C\CC[C@H](C)C[C@H]1C)(C([2H])([2H])[2H])C([2H])([2H])[2H] [Compound 5287, 1,1,1,3,3,3-hexadeutero-2-(trideuteromethyl)propan-2-yl((2R,6S,7R,9S,13aS,14aR,16aS,Z)-14a-((cyclopropylsulfonyl)carbamoyl)-7,9-dimethyl-2-((4-methyl-3,4-dihydro-2H-[1,4]oxazino[2,3-f]isoquinolin-7-yl)oxy)-5,16-dioxo-1,2,3,5,6,7,8,9,10,11,13a,14,14a,15,16,16a-hexadecahydrocyclopropa[e]pyrrolo[1,2-a][1,4]diazacyclopentadecin-6-yl)carbamate] | > 8.26 | > 8.26 |  |
| CCCOc1cnc(O[C@@H]2C[C@H]3C(=O)N[C@]4(C(=O)NS(=O)(=O)C5CC5)C[C@H]4/C=C\CC[C@H](C)C[C@@H](C)[C@H](NC(=O)O[C@H](C)C(F)(F)F)C(=O)N3C2)c2ccccc12 [Compound 5094, (R)-1,1,1-trifluoropropan-2-yl((2R,6S,7R,9S,13aS,14aR,16aS,Z)-14a-((cyclopropylsulfonyl)carbamoyl)-7,9-dimethyl-5,16-dioxo-2-((4-propoxyisoquinolin-1-yl)oxy)-1,2,3,5,6,7,8,9,10,11,13a,14,14a,15,16,16a-hexadecahydrocyclopropa[e]pyrrolo[1,2-a][1,4]diazacyclopentadecin-6-yl)carbamate] | < 7.06 | < 7.06 |  |
| CCOc1cc2ccnc(O[C@@H]3C[C@H]4C(=O)N[C@]5(C(=O)NS(=O)(=O)C6CC6)C[C@H]5/C=C\CC[C@@H](C)C[C@@H](C)[C@H](NC(=O)OC(C)(C)C(C)(F)F)C(=O)N4C3)c2cc1F [Compound 5403, 3,3-difluoro-2-methylbutan-2-yl((2R,6S,7R,9R,13aS,14aR,16aS,Z)-14a-((cyclopropylsulfonyl)carbamoyl)-2-((6-ethoxy-7-fluoroisoquinolin-1-yl)oxy)-7,9-dimethyl-5,16-dioxo-1,2,3,5,6,7,8,9,10,11,13a,14,14a,15,16,16a-hexadecahydrocyclopropa[e]pyrrolo[1,2-a][1,4]diazacyclopentadecin-6-yl)carbamate] | 9.00 to 9.29 | 9.30 to 10.00 |  |
| COc1cc2ccnc(O[C@@H]3C[C@H]4C(=O)N[C@]5(C(=O)NS(=O)(=O)C6(CF)CC6)C[C@H]5/C=C\CC[C@@H](C)C[C@@H](C)[C@H](NC(=O)C(C)(C)C)C(=O)N4C3)c2cc1F [Compound 4165, (2R,6S,7R,9R,13aS,14aR,16aS,Z)-2-(7-fluoro-6-methoxyisoquinolin-1-yloxy)-N-(1-(fluoromethyl)cyclopropylsulfonyl)-7,9-dimethyl-5,16-dioxo-6-pivalamido-1,2,3,5,6,7,8,9,10,11,13a,14,14a,15,16,16a-hexadecahydrocyclopropa[e]pyrrolo[1,2-a][1,4]diazacyclopentadecine-14a-carboxamide] | > 8.26 | > 8.26 |  |
| CCOc1nnc(O[C@@H]2C[C@H]3C(=O)N[C@]4(C(=O)NS(=O)(=O)C5CC5)C[C@H]4/C=C\CC[C@@H](C)C[C@@H](CC)[C@H](NC(=O)OC(C)(C)C)C(=O)N3C2)c2ccccc12 [Compound 5043, tert-butyl ((2R,6S,7R,9R,13aS,14aR,16aS,Z)-14a-((cyclopropylsulfonyl)carbamoyl)-2-((4-ethoxyphthalazin-1-yl)oxy)-7-ethyl-9-methyl-5,16-dioxo-1,2,3,5,6,7,8,9,10,11,13a,14,14a,15,16,16a-hexadecahydrocyclopropa[e]pyrrolo[1,2-a][1,4]diazacyclopentadecin-6-yl)carbamate] | > 8.26 | > 8.26 |  |
| CCOc1cc2ccnc(O[C@@H]3C[C@H]4C(=O)N[C@]5(C(=O)NS(=O)(=O)C6(CF)CC6)C[C@H]5/C=C\CC[C@H](C)C[C@@H](C)[C@H](NC(=O)OC(C)(C)C)C(=O)N4C3)c2cc1F [Compound 5410, tert-butyl ((2R,6S,7R,9S,13aS,14aR,16aS,Z)-2-((6-ethoxy-7-fluoroisoquinolin-1-yl)oxy)-14a-(((1-(fluoromethyl)cyclopropyl)sulfonyl)carbamoyl)-7,9-dimethyl-5,16-dioxo-1,2,3,5,6,7,8,9,10,11,13a,14,14a,15,16,16a-hexadecahydrocyclopropa[e]pyrrolo[1,2-a][1,4]diazacyclopentadecin-6-yl)carbamate] | 7.46 to 8.30 | 8.30 to 9.00 |  |
| [2H]C([2H])([2H])C(OC(=O)N[C@@H]1C(=O)N2C[C@H](Oc3nc(-c4ccc(OC(C)C)nc4)cc4cc(OC)ccc34)C[C@H]2C(=O)N[C@]2(C(=O)NS(=O)(=O)C3(C)CC3)C[C@H]2/C=C\CC[C@H](C)C[C@H]1C)(C([2H])([2H])[2H])C(F)(F)F [Compound 5226, 1,1,1,3,3,3-hexadeutero-2-(trifluoromethyl)propan-2-yl((2R,6S,7R,9S,13aS,14aR,16aS,Z)-2-((3-(6-isopropoxypyridin-3-yl)-6-methoxyisoquinolin-1-yl)oxy)-7,9-dimethyl-14a-(((1-methylcyclopropyl)sulfonyl)carbamoyl)-5,16-dioxo-1,2,3,5,6,7,8,9,10,11,13a,14,14a,15,16,16a-hexadecahydrocyclopropa[e]pyrrolo[1,2-a][1,4]diazacyclopentadecin-6-yl)carbamate] | 6.99 to 8.32 | 6.99 to 8.32 |  |
| CCOc1ccc2ncc(O[C@@H]3C[C@H]4C(=O)N[C@]5(C(=O)NS(=O)(=O)C6(C)CC6)C[C@H]5/C=C\CC[C@@H](C)C[C@@H](C)[C@H](NC(=O)OC(C)(C)C(F)(F)F)C(=O)N4C3)cc2c1 [Compound 4313] |  |  | pEC50 [1, 5]: 9.00 to 9.29; pEC50 [2, 6]: 9.30 to 10.00 |
| CCC(C)(OC(=O)N[C@@H]1C(=O)N2C[C@H](Oc3nccc4c5c(ccc34)OCCO5)C[C@H]2C(=O)N[C@]2(C(=O)NS(=O)(=O)C3CC3)C[C@H]2/C=C\CC[C@@H](C)C[C@H]1C)C(F)(F)F (some centres unmarked) [Compound 5260] |  |  | pEC50 [1, 5]: > 8.26; pEC50 [2, 6]: > 8.26 |
| COc1ccc2c(O[C@@H]3C[C@H]4C(=O)N[C@]5(C(=O)NS(=O)(=O)C6(C)CC6)C[C@H]5/C=C\CC[C@@H](C)C[C@@H](C)[C@H](NC(=O)O[C@H](C)C(F)(F)F)C(=O)N4C3)nc(N3CCOCC3)cc2c1 [Compound 3093, (R)-1,1,1-trifluoropropan-2-yl ((2R,6S,7R,9R,13aS,14aR,16aS,Z)-2-((6-methoxy-3-morpholinoisoquinolin-1-yl)oxy)-7,9-dimethyl-14a-(((1-methylcyclopropyl)sulfonyl)carbamoyl)-5,16-dioxo-1,2,3,5,6,7,8,9,10,11,13a,14,14a,15,16,16a-hexadecahydrocyclopropa[e]pyrrolo[1,2-a][1,4]diazacyclopentadecin-6-yl)carbamate] |  |  | pEC50 [1, 7]: > 8.26; pEC50 [2, 8]: > 8.26 |
| COc1ccc2c(O[C@@H]3C[C@H]4C(=O)N[C@]5(C(=O)NS(=O)(=O)C6CC6)C[C@H]5/C=C\CC[C@@H](C)C[C@@H](C)[C@H](NC(=O)OC(C)(C)C(F)(F)F)C(=O)N4C3)nc(-c3ccc(OC(C)C)c(F)c3)cc2c1 [Compound 3064, 1,1,1-trifluoro-2-methylpropan-2-yl((2R,6S,7R,9R,13aS,14aR,16aS,Z)-14a-((cyclopropylsulfonyl)carbamoyl)-2-((3-(3-fluoro-4-isopropoxyphenyl)-6-methoxyisoquinolin-1-yl)oxy)-7,9-dimethyl-5,16-dioxo-1,2,3,5,6,7,8,9,10,11,13a,14,14a,15,16,16a-hexadecahydrocyclopropa[e]pyrrolo[1,2-a][1,4]diazacyclopentadecin-6-yl)carbamate] |  |  | pEC50 [1, 7]: > 8.26; pEC50 [2, 8]: > 8.26 |
| C[C@H]1CC/C=C\[C@@H]2C[C@@]2(C(=O)NS(=O)(=O)C2(C)CC2)NC(=O)[C@@H]2C[C@@H](Oc3nccc4c5c(ccc34)N(C)CCO5)CN2C(=O)[C@@H](NC(=O)c2ccc(N(C)C)cc2)[C@H](C)C1 [Compound 5303, (2R,6S,7R,9S,13aS,14aR,16aS,Z)-6-(4-(dimethylamino)benzamido)-7,9-dimethyl-2-((4-methyl-3,4-dihydro-2H-[1,4]oxazino[2,3-f]isoquinolin-7-yl)oxy)-N-((1-methylcyclopropyl)sulfonyl)-5,16-dioxo-1,2,3,5,6,7,8,9,10,11,13a,14,14a,15,16,16a-hexadecahydrocyclopropa[e]pyrrolo[1,2-a][1,4]diazacyclopentadecine-14a-carboxamide] | 6.99 to 8.32 | > 8.26 |  |
| CC[C@@H]1C[C@@H](C)CC/C=C\[C@@H]2C[C@@]2(C(=O)NS(=O)(=O)C2CC2)NC(=O)[C@@H]2C[C@@H](Oc3nccc4c(OC)cccc34)CN2C(=O)[C@H]1NC(=O)NC(C)(C)C [Compound 3029, (2R,6S,7R,9S,13aS,14aR,16aS,Z)-6-(3-(tert-butyl)ureido)-N-(cyclopropylsulfonyl)-7-ethyl-2-((5-methoxyisoquinolin-1-yl)oxy)-9-methyl-5,16-dioxo-1,2,3,5,6,7,8,9,10,11,13a,14,14a,15,16,16a-hexadecahydrocyclopropa[e]pyrrolo[1,2-a][1,4]diazacyclopentadecine-14a-carboxamide] |  |  | pEC50 [1, 7]: 6.99 to 8.32; pEC50 [2, 8]: 6.99 to 8.32 |
